Reference: patent EP4702986A1, “POLYPEPTIDE AND USE THEREOF” (Biocells (Beijing) Biotech Co., Ltd., priority 2023, dated 2024)
Numbered stars: 1 amine (or outer) side, 2 acyl side, 3 side chain; on linkers, the order of the positions; unused ones are H or OH. Side chains are listed from the residue outwards. Peptide text beside a SMILES is read from it. * marks the point of attachment. C18 diacid = O=C(O)CCCCCCCCCCCCCCCCC(=O)*; γGlu = O=C(O)[C@H](CCC(=O)[*:2])N[*:1]; Fumaroyl = O=C(O)/C=C/C(=O)*; Suc = O=C(CCC(=O)[*:2])[*:1]; Lauroyl = CCCCCCCCCCCC(=O)*; AEEA = NCCOCCOCC(=O)O

Tests used:
BDNF = BDNF protein expression in infarcted brain tissue of tMCAO mice (ELISA); type: in vivo, C57/6J mice; details: for BDNF: 3 times (D1, D3, D6), infarcted brain tissue after D14; for expression level of BDNF protein compared with the normal saline group: tMCAO mice
Experimental: Fifty-one male C57/6J mice, aged 10-12 weeks, weighing 25-30g, were housed for at least 2 days prior to the experiment to adapt to the environment (SPF Biotech). A mouse model of tMCAO was established. The mice were anesthetized with isoflurane. Their body temperature was controlled by a thermostatic blanket and monitored and maintained at 37±0.5°C. A middle incision was made in the skin on the mouse skull, the skin was pulled outward, and a bendable microneedle tip was fixed to the surface of the left parietal bone of the mouse skull. A middle incision on the neck was made to separate the right common carotid artery (CCA), external carotid artery (ECA) and internal carotid artery (ICA). According to the method of Longa (Longa et al., 1989), a silicone rubber-coated suture (RWD Life Science, suture end diameter: 0.22 mm-0.23 mm, MSMC23B120PK50) was introduced through an external carotid artery incision surgery and was slowly advanced through the internal carotid artery towards the origin of the middle cerebral artery. To ensure a sustained and successful occlusion of the middle cerebral artery, we monitored local cerebral blood flow of all stroke animals with a laser speckle flowmeter (generally, the blood flow can be reduced by 40-60% after stabilized). The suture was removed 45 min after the insertion for modeling, and the incision was sutured. Afterward, 1 mL of 37°C warm saline was injected subcutaneously, and the mice were placed on a heating pad until recovery. To alleviate pain, the mice were injected subcutaneously with Tilidine after awakening from anesthesia.
Successfully modeled C57 tMCAO mice were randomly assigned into three groups: a normal saline group, a 30µg/Kg BX229-Na administration group, and a 100µg/Kg BX229-Na administration group. Each group was administered once subcutaneously in the neck 4.5 hours after occlusion (D1), and was administered once more at the same sites and at the same time points on D3 and D6. A sham group included 6 animals. 2 mL/kg was administrated subcutaneously in the neck. Garcia JH scoring was made on D7 and D14 after administration. After the completion of the scoring on D14, the mice were euthanized and harvested for infarcted brain tissues, to extract total proteins. Changes in protein markers VEGF-A and BDNF in each experimental group were detected by ELISA. Table 19: Experimental Grouping and Dosing Regimen

rat model of pMACO = assay: Rotarod test in rat model of pMACO; type: in vivo, SD rats; details: IRL1620 5 µg/Kg, BX34 7 µg/Kg, BX48 5 µg/Kg, administered 3 times (2, 4, 6 hours after modeling), n=10
From the text: Male SD rats weighing 280-300 g were used and acclimated for at least 3 days. Focal cerebral ischemia was induced by middle cerebral artery occlusion with a suture method under isoflurane anesthesia. The animals were placed in a secure supine position, and a midline incision was made to expose the right common carotid artery, external carotid artery, and internal carotid artery. A 4.0 monofilament nylon suture was advanced from the external carotid artery toward the internal carotid artery lumen until resistance was felt ( ~ 20 mm), indicating middle cerebral artery occlusion. The nylon filament was allowed to stay in place to create a permanent model of focal cerebral ischemia. Successfully modeled rats were randomly assigned to four groups: a solvent (normal saline) group (n=10), a 7 µg/Kg BX-34 group (n=10), a 5 µg/Kg BX-48 group (n=10), and a 5 µg/Kg IRL1620 group (n=10). Each group was administered once at 2 hours, 4 hours, and 6 hours, respectively, after modeling, for a total of three administrations. Grip strength was measured before administration and at 24 hours and on D3 and D7 after administration. A rotarod test and a foot fault test were performed before administration and at 24 hours and day 7 after administration. During the rotarod test, time and distance were recorded, and ratios of the measurement at 24 hours and the measurement at D7 to the pretest measurement were used as analysis indicators. The specific method for the foot fault test was as follows. The rats were placed on an elevated grid floor (29×29 cm, grid opening: 3 cm^2) for 2 minutes, and the number of foot faults (when a forelimb fell through the grid) and the total steps were recorded. % Foot fault = (the number of forelimb faults/the total number of forelimb steps) × 100.

[1] = background statement; cited from earlier work

CCCCCCCCCCCC(=O)N[C@@H](CCC(=O)NCCOCCOCC(=O)NCCCC[C@H](NC(=O)[C@H](Cc1c[nH]cn1)NC(=O)[C@H](C)NC(=O)[C@H](Cc1ccccc1)NC(=O)[C@H](Cc1ccc(O)cc1)NC(=O)[C@@H](NC(=O)[C@H](C)NC(=O)[C@H](CCC(=O)O)NC(=O)[C@H](CCC(=O)O)NC(=O)[C@H](CC(=O)O)NC(=O)/C=C/C(=O)O)C(C)C)C(=O)N[C@@H](CC(=O)O)C(=O)N[C@H](C(=O)N[C@H](C(=O)N[C@@H](Cc1c[nH]c2ccccc12)C(=O)O)[C@@H](C)CC)C(C)C)C(=O)O [BX229-Na] (Fumaroyl-DEEAVYFAHK([AEEA-γGlu-Lauroyl])DVIW-OH)
BDNF (BDNF; 30 µg/Kg subcutaneously): 1103 ± 582 pg/mL | BDNF (BDNF; 100 µg/Kg subcutaneously): 1334 ± 665 pg/mL | expression level of BDNF protein compared with the normal saline group (BDNF; 30µg/Kg three-dose group): higher | expression level of BDNF protein compared with the normal saline group (BDNF; 100µg/Kg three-dose group): higher

CC[C@H](C)[C@H](NC(=O)[C@H](CC(=O)O)NC(=O)[C@H](CCCCNC(=O)COCCOCCNC(=O)COCCOCCNC(=O)CC[C@H](NC(=O)CCCCCCCCCCCCCCCCC(=O)O)C(=O)O)NC(=O)[C@H](Cc1c[nH]cn1)NC(=O)[C@H](C)NC(=O)[C@H](Cc1ccccc1)NC(=O)[C@H](Cc1ccc(O)cc1)NC(=O)[C@@H](NC(=O)[C@H](C)NC(=O)[C@H](CCC(=O)O)NC(=O)[C@H](CCC(=O)O)NC(=O)[C@H](CC(=O)O)NC(=O)/C=C/C(=O)O)C(C)C)C(=O)N[C@H](C(=O)N[C@@H](Cc1c[nH]c2ccccc12)C(=O)O)[C@@H](C)CC [BX-34] (Fumaroyl-DEEAVYFAHK([AEEA-AEEA-γGlu-C18 diacid])DIIW-OH)
Rotarod Test 7D/pretest (%) Distance, m (rat model of pMACO; 7D relative to pretest): 49.60%±49.48% | Rotarod Test 7D/pretest (%) Time, s (rat model of pMACO; 7D relative to pretest): 65.5%±29.94% | Rotarod Test 7D/pretest (%) Velocity (rat model of pMACO; 7D relative to pretest): 62.27%±34.12% | Rotarod Test 24h/pretest (%) Distance, m (rat model of pMACO; 24h relative to pretest): 28.25%±44.00% | Rotarod Test 24h/pretest (%) Time, s (rat model of pMACO; 24h relative to pretest): 38.34%±38.08% | Rotarod Test 24h/pretest (%) Velocity (rat model of pMACO; 24h relative to pretest): 39.09%±35.03%

CC[C@H](C)[C@H](NC(=O)[C@H](CC(=O)O)NC(=O)[C@H](CC(C)C)NC(=O)[C@H](Cc1c[nH]cn1)NC(=O)[C@H](C)NC(=O)[C@H](Cc1ccccc1)NC(=O)[C@H](Cc1ccc(O)cc1)NC(=O)[C@@H](NC(=O)[C@H](C)NC(=O)[C@H](CCC(=O)O)NC(=O)[C@H](CCC(=O)O)NC(=O)[C@H](CC(=O)O)NC(=O)CCC(=O)O)C(C)C)C(=O)N[C@H](C(=O)N[C@@H](Cc1c[nH]c2ccccc12)C(=O)O)[C@@H](C)CC [IRL1620, reference compound] (Suc-DEEAVYFAHLDIIW-OH)
half-life [1]: less than 2 minutes
